Results reported in PMC4459817, “Vasculotide reduces endothelial permeability and tumor cell extravasation in the absence of binding to or agonistic activation of Tie2” (EMBO Molecular Medicine, 2015).
Entries after “also recorded” stand apart in the source; their conditions may differ.

Experiments:
[1] = tested on: LM2-4luc lung metastases in SCID mice; experiment: experimental LM2-4luc lung metastasis model (IV); assay type: in vivo, human LM2-4luc cells in CB-17 SCID mice; settings: for lung metastases by in vivo bioluminescent imaging: 24DPI, SU 60 mg/kg/day pretreatment, one-way ANOVA, Fig2B–D
From the text: (C and G) Photographs of typical metastases in the lungs and caudal lymphatics, respectively. […] Geometric means ± 95%CI are depicted in (D and H); P values were derived by one-way ANOVA (D) and Kruskal–Wallis test (H). […] TEXT PRINTED IN THE PICTURE: (A) Vasculotide (VT): Hazard ratio = 0.13 (95% CI, 0.03 to 0.63) | (A) SU+VT: Hazard ratio = 0.19 (95% CI, 0.04 to 0.81) DOUBTS OF THE COPYIST ABOUT THIS PICTURE: Vasculotide (VT), Hazard ratio: small print; 0.13 could be 0.15 or 0.18, and the CI limits 0.03 and 0.63 are uncertain in the digits 3/5/6/8 / SU+VT, Hazard ratio: small print; 0.19 could be 0.18 or 0.16, and the CI limits 0.04 and 0.81 are uncertain in the digits / Panel A: each hazard ratio is printed under a pair of legend entries (Vehicle / Vasculotide (VT), and Sunitinib (SU) / SU+VT). Assigning it to the VT-treated arm of each pair is my assumption.
(§1) In vivo experiments were performed in strict accordance with protocols approved by the Sunnybrook Research Institute Animal Care Committee, accredited by the Canadian Council of Animal Care. All surgical, imaging, and euthanasia procedures were performed under inhaled isoflurane anesthesia. Experimental metastasis models involved injections of 10^6 tumor cells, suspended in 200 μl serum-free DMEM, into the mouse tail vein. LM2-4^luc implantations were performed on 6 to 8-week-old female CB-17 SCID mice (Charles River Canada). HT29^luc implantations were performed on 19- to 20-week-old male and 11- to 12-week-old female YFP-SCID mice (bred in-house). SN12^luc implantations were performed on 9-week-old male YFP-SCID mice. Spontaneous metastasis models involved orthotopic implantations of 2 × 10^6 LM2-4^luc cells/50 μl serum-free DMEM in the right inguinal mammary fat pads of 6-week-old female CB-17 SCID mice.
(§2) Sunitinib malate (SU), from Pfizer or LC Laboratories, and its vehicle were formulated as described before (Ebos et al, [2009]). SU was administered by oral gavage (PO), once daily, at a dose of 60 mg/kg mouse weight. Vasculotide (VT): VT synthesized at the Sunnybrook Research Institute (Toronto, ON, Canada) was used in experiments described in Fig2(A–D) and Supplementary Fig S5(A and B). VT synthesized by American Peptide (Sunnyvale, CA, USA) was used in experiments described in Fig5. VT synthesized by Bachem UK Ltd was used in experiments described in Figs1, 2(E–H), 3, 4, 6–9, Supplementary Figs S2, and S5(C and D). Lyophilized product was reconstituted in PBS to 500 μg/500 μl stock aliquots and stored at −80°C. As needed, stock aliquots were diluted with PBS to a 250 ng/50 μl working concentration and stored in 0.4–1 ml aliquots at −80°C. VT (at a standard dose of 250 ng/mouse) or its vehicle (PBS) was administered to mice by intraperitoneal (IP) injections every other day.
(§3) 5. Bioluminescence imaging (BI) of tumor burden
For in vivo BI: Mice were injected intraperitoneally with 150mg/kg luciferin (Promega) 10 minutes prior to and anesthetized with isofluorane just before luminescent pseudocolor imaging (uniform settings: CCD camera locked at -105 °C, exposure=60s, f/1, subject size=1.5cm, bin=8, FOV=23.2cm, full image correction) using the IVIS 200 Imaging System (Caliper/PerkinElmer). Using the Living Image software (v2.50.1, Xenogen), weekly images were analyzed under uniform color range on grayscale photographic overlay. Total fluxes (photons/sec) were quantified within consistent regions of interest and statistically compared ideally at a timepoint before any deaths have occurred. […]

[2] = tested on: residual and metastatic LM2-4luc disease after resection; experiment: orthotopic LM2-4luc xenografts with surgical resection of primary tumor (adjuvant setting); assay type: in vivo, human LM2-4luc cells in CB-17 SCID mice
From the text: A second orthotopic implantation experiment involved surgical resection of primary LM2-4^luc tumors (∽400 mm^3) at 17DPI (Fig6) to model post-operative metastases arising from minimal residual disease (MRD). MRD includes the regrowth of incompletely resected mammary tumors, as well as circulating or disseminated tumor cells released from primary tumors prior to or at the time of surgical resection. VT was initiated 6 days prior to surgery and maintained chronically, while adjuvant SU (1-week or 3-week 60 mg/kg/day) treatments were initiated 1 day post-surgery (Fig6A).
as §1, §2, §3
For in vivo BI: Mice were injected intraperitoneally with 150mg/kg luciferin (Promega) 10 minutes prior to and anesthetized with isofluorane just before luminescent pseudocolor imaging (uniform settings: CCD camera locked at -105 °C, exposure=60s, f/1, subject size=1.5cm, bin=8, FOV=23.2cm, full image correction) using the IVIS 200 Imaging System (Caliper/PerkinElmer). Using the Living Image software (v2.50.1, Xenogen), weekly images were analyzed under uniform color range on grayscale photographic overlay. Total fluxes (photons/sec) were quantified within consistent regions of interest and statistically compared ideally at a timepoint before any deaths have occurred.
For ex vivo BI: Mice were sacrificed at 7 mins after luciferin injections, then organs of interest were dissected and individually placed within 24-well plates for imaging at 10 min post-luciferin injection.
6. Immunohistochemical (IHC) analysis of lung metastases […]

Molecule | lung metastases by in vivo bioluminescent imaging ([1]; VT 250 ng/2d, listed as SU) | thoracic metastases benefit ([2]; 10 days after discontinuation of 1-week SU, Fig6C) | abdominal tumor growth vs. thoracic metastatic dissemination ([2]; adjuvant SU, Fig6C, D) | lung metastases by in vivo bioluminescent imaging ([1]; VT 250 ng/2d, listed as VT) | confirmatory repeats: VT trends on lung metastases and survival ([1]; Supplementary Fig S5) | survival ([1]; VT 250 ng/2d, with or without SU 60 mg/kg/day pretreatment, n = 5–6, Fig2A, listed as VT) | extension of median survival ([1]; VT 250 ng/2d IP monotherapy, n = 5–6, Fig2A) [%] | tumor bioluminescence, VT combined with 1-wk SU ([2]; Fig6C and D) | survival advantage ([2]; VT monotherapy, Plog-rank = 0.42, Fig6A) | thoracic metastatic dissemination vs. abdominal tumor growth ([2]; thoracic P = 0.04, abdominal P > 0.05 for VT, Fig6C, D)
CCN(CC)CCNC(=O)c1c(C)[nH]c(/C=C2\C(=O)Nc3ccc(F)cc32)c1C [sunitinib, reference compound] | promoted lung metastases; also recorded: preferentially accelerated experimental lung metastasis, but not lymphatic metastasis | no benefit was observed with respect to thoracic metastases | more effective at inhibiting abdominal tumor growth (Fig6D) than thoracic metastatic dissemination |  |  |  |  |  |  | 
CHHHRHSF [Vasculotide, 4-armed maleimide-functionalized polyethylene glycol (PEG) backbone to link together four cysteine-capped T7 peptides, that is, CHHHRHSF] |  |  |  | trend of reduced lung metastases; also recorded: effectively suppressing SU-induced promotion of lung metastases, as seen by IVBI (P < 0.05 | The same trends were reproduced | significant survival benefit (P = 0.01); also recorded: prolonged median survival | ~20 | lowered tumor bioluminescence to a similar extent as 3-wk SU monotherapy | not statistically significant | more effective at inhibiting thoracic metastatic dissemination (Fig6C, P = 0.04) than abdominal tumor growth (Fig6D, P > 0.05)
